# “And” between values parts separate entries of the source, which are not always exact repeats. Equal entries are not always repeated. Structures can show the parent of a compound that is named as a salt.
# Biological target: human TYK2 (JH2domain-pseudokinase) (Homo sapiens (Human), UniProt P29597)
# Test: TYK2 JH2 Domain Binding Assay (KINOMEscan competition binding)
# Details: KINOMEscan; 11-point 3-fold dilution, top concentration 30,000 nM; Kd measurements in duplicate; read-out: TYK JH2 (Kd)
# Experimental: Binding constants for compounds disclosed herein may be determined by the KINOMEscan® assay developed by DiscoveRx. KINOMEscan® is based on a competition binding assay that quantitatively measures the ability of a compound to compete with an immobilized, active-site directed ligand. The assay is performed by combining three components: DNA-tagged kinase; immobilized ligand; and a test compound. The ability of the test compound to compete with the immobilized ligand is measure via quantitative PCR of the DNA tag.
# Binding constants for compounds disclosed herein against the JH2 domain are determined by the following protocol for a KINOMEscan® assay (DiscoveRx). A fusion protein of a partial length construct of human TYK2 (JH2domain-pseudokinase) (amino acids G556 to D888 based on reference sequence NP 003322.3) and the DNA binding domain of NFkB is expressed in transiently transfected HEK293 cells. From these HEK 293 cells, extracts are prepared in M-PER extraction buffer (Pierce) in the presence of Protease Inhibitor Cocktail Complete (Roche) and Phosphatase Inhibitor Cocktail Set II (Merck) per manufacturers' instructions. The TYK2 (JH2domain-pseudokinase) fusion protein is labeled with a chimeric double-stranded DNA tag containing the NFkB binding site (5′-GGGAATTCCC-3′) fused to an amplicon for qPCR readout, which is added directly to the expression extract (the final concentration of DNA-tag in the binding reaction is 0.1 nM).
# Streptavidin-coated magnetic beads (Dynal M280) are treated with a biotinylated small molecule ligand for 30 minutes at room temperature to generate affinity resins for the binding assays. The liganded beads are blocked with excess biotin and washed with blocking buffer (SeaBlock (Pierce), 1% BSA, 0.05% Tween 20, 1 mM DTT) to remove unbound ligand and to reduce nonspecific binding.
# Extracts are used directly in binding assays without any enzyme purification steps at a >10,000-fold overall stock dilution (final DNA tagged enzyme concentration<0.1 nM). Extracts are loaded with DNA-tag and diluted into the binding reaction in a two-step process. First extracts are diluted 1:100 in 1× binding buffer (PBS/0.05% Tween 20/10 mM DTT/0.1% BSA/[…] sonicated salmon sperm DNA) containing 10 nM DNA-tag. This dilution is allowed to equilibrate at room temperature for 15 minutes and then subsequently diluted 1:100 in 1× binding buffer. Test compounds are prepared as 111× stocks in 100% DMSO. Kds are determined using an 11-point 3-fold compound dilution series with three DMSO control points. All compounds for Kd measurements are distributed by acoustic transfer (non-contact dispensing) in 100% DMSO. The compounds are then diluted directly into the assays such that the final concentration of DMSO is 0.9%. All reactions performed in polypropylene 384-well plates. Each is a final volume of 0.02 mL. Assays are incubated with shaking for 1 hour at room temperature. Then the beads are pelleted and washed with wash buffer (lx PBS, 0.05% Tween 20) to remove displaced kinase and test compound. The washed beads are re-suspended in elution buffer (lx PBS, 0.05% Tween 20, 0.5 μM non-biotinylated affinity ligand) and incubated at room temperature with shaking for 30 minutes. The kinase concentration in the eluates is measured by qPCR. qPCR reactions are assembled by adding 2.5 μL of kinase eluate to 7.5 μL of qPCR master mix containing 0.15 μM amplicon primers and 0.15 μM amplicon probe. The qPCR protocol consists of a 10-minute hot start at 95° C., followed by 35 cycles of 95° C. for 15 seconds, 60° C. for 1 minute.
# Test compounds are prepared as 111× stocks in 100% DMSO. Kds are determined using an 11-point 3-fold compound dilution series with three DMSO control points. All compounds for Kd measurements are distributed by acoustic transfer (non-contact dispensing) in 100% DMSO. The compounds are then diluted directly into the assays such that the final concentration of DMSO is 0.9%. […]
# human TYK2 (JH2domain-pseudokinase), sequence (P29597 556-888): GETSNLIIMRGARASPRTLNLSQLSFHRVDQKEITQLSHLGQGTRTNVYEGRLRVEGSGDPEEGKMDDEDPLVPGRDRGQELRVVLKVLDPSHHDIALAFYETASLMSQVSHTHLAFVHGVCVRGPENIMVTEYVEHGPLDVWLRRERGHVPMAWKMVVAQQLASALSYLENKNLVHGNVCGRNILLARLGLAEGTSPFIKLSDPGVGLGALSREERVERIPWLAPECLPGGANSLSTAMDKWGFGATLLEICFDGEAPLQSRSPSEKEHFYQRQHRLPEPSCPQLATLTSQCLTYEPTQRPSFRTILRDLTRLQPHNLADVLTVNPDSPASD
row,Kd,SMILES
1,2400 nM,"COc1ccccc1Nc1nc(N2CCC(C(=O)O)CC2)ncc1C(N)=O [Compound 44, 1-(5-carbamoyl-4-((2-methoxyphenyl)amino)pyrimidin-2-yl)piperidine-4-carboxylic Acid]"
2,6600 nM,"NC(=O)c1cnc(N2CCCNCC2)nc1Nc1ccc(C2CC2)nc1 [Compound 46, 4-((6-cyclopropylpyridin-3-yl)amino)-2-(1,4-diazepan-1-yl)pyrimidine-5-carboxamide Hydrochloride]"
3,0.69 nM,"CNC(=O)c1cnc(N2CC[C@@H](C(=O)NC)C2)nc1Nc1cccc(-c2ncc(F)cn2)c1OC [Compound 5, (R)-4-((3-(5-fluoropyrimidin-2-yl)-2-methoxyphenyl)amino)-N-methyl-2-(3-(methylcarbamoyl)pyrrolidin-1-yl)pyrimidine-5-carboxamide]"
4,120 nM,"CC(=O)N1CCN(c2ncc(C(N)=O)c(Nc3ccccc3S(C)(=O)=O)n2)C(C)C1 (racemic) [Compound 62, 2-(4-acetyl-2-methylpiperazin-1-yl)-4-((2-(methylsulfonyl)phenyl)amino)pyrimidine-5-carboxamide]"
5,4900 nM,"CNC(=O)c1cnc(N2CCCN(C(C)=O)CC2)nc1Nc1ccccc1OC [Compound 24, 2-(4-acetyl-1,4-diazepan-1-yl)-4-((2-methoxyphenyl)amino)-N-methylpyrimidine-5-carboxamide]"
6,430 nM,"CNC(=O)c1cnc(N2CC[C@H](C(=O)NC)C2)nc1Nc1ccc(C2CC2)nc1 [Compound 6, (S)-4-((6-cyclopropylpyridin-3-yl)amino)-N-methyl-2-(3-(methylcarbamoyl)pyrrolidin-1-yl)pyrimidine-5-carboxamide]"
7,11000 nM,"CNC(=O)c1cnc(N2CCCNCC2)nc1Nc1ccc(C2CC2)nc1 [Compound 22, 4-((6-cyclopropylpyridin-3-yl)amino)-2-(1,4-diazepan-1-yl)-N-methylpyrimidine-5-carboxamide Hydrochloride]"
8,14000 nM,"CNC(=O)c1cnc(N2CCCN(C(C)=O)CC2)nc1Nc1ccc(C2CC2)nc1 [Compound 21, 2-(4-acetyl-1,4-diazepan-1-yl)-4-((6-cyclopropylpyridin-3-yl)amino)-N-methylpyrimidine-5-carboxamide]"
9,330 nM,"CS(=O)(=O)c1ccccc1Nc1nc(N2CCC(C(=O)O)CC2)ncc1C(N)=O [Compound 78, 1-(5-carbamoyl-4-((2-(methylsulfonyl)phenyl)amino)pyrimidin-2-yl)piperidine-4-carboxylic Acid]"
10,15 nM,"CNC(=O)c1cnc(N2CCN(C(C)=O)CC2C)nc1Nc1cccc(-c2ncc(F)cn2)c1OC (stereo not drawn) [Compound 61, 2-(4-acetyl-2-methylpiperazin-1-yl)-4-((3-(5-fluoropyrimidin-2-yl)-2-methoxyphenyl)amino)-N-methylpyrimidine-5-carboxamide]"
11,660 nM,"CCOC(=O)C1CCN(c2ncc(C(N)=O)c(Nc3ccc(C4CC4)nc3)n2)CC1 [Compound 36, Ethyl 1-(5-carbamoyl-4-((6-cyclopropylpyridin-3-yl)amino)pyrimidin-2-yl)piperidine-4-carboxylate]"
12,440 nM,"CNC(=O)c1cnc(N2CCN(C(=O)OC(C)(C)C)CC2C)nc1Nc1ccccc1S(C)(=O)=O (stereo not drawn) [Compound 18, Tert-Butyl 3-methyl-4-(5-(methylcarbamoyl)-4-((2-(methylsulfonyl)phenyl)amino)pyrimidin-2-yl)piperazine-1-carboxylate]"
13,470 nM,"COc1c(Nc2nc(N3CCCN(C(=O)OC(C)(C)C)CC3)ncc2C(N)=O)cccc1-c1ncc(F)cn1 [Compound 71, tert-butyl 4-(S-carbamoyl-4-((3-(5-fluoropyrimidin-2-yl)-2-methoxyphenyl)amino)pyrimidin-2-yl)-1,4-diazepane-1-carboxylate]"
14,160 nM,"O=C(NO)c1cnc(N2CCCC2)nc1Nc1ccc(C2CC2)nc1 [Compound 54, 4-((6-cyclopropylpyridin-3-yl)amino)-N-hydroxy-2-(pyrrolidin-1-yl)pyrimidine-5-carboxamide]"
15,710 nM,"CNC(=O)c1cnc(N2CCC(C(=O)O)CC2)nc1Nc1ccccc1OC [Compound 33, 1-(4-((2-methoxyphenyl)amino)-5-(methylcarbamoyl)pyrimidin-2-yl)piperidine-4-carboxylic Acid]"
16,1800 nM,"CNC(=O)c1cnc(N2CCNCC2C)nc1Nc1ccccc1S(C)(=O)=O (stereo not drawn) [Compound 69, N-methyl-2-(2-methylpiperazin-1-yl)-4-((2-(methylsulfonyl)phenyl)amino)pyrimidine-5-carboxamide Hydrochloride]"
17,110 nM,"CNC(=O)C1CN(c2ncc(C(N)=O)c(Nc3ccc(C4CC4)nc3)n2)C1 [Compound 50, 4-((6-cyclopropylpyridin-3-yl)amino)-2-(3-(methylcarbamoyl)azetidin-1-yl)pyrimidine-5-carboxamide]"
18,170 nM,"CNC(=O)c1cnc(N2CCC(C(=O)NC)C2)nc1Nc1ccc(C2CC2)nc1 (stereo not drawn) [Compound 1, 4-((6-cyclopropylpyridin-3-yl)amino)-N-methyl-2-(3-(methylcarbamoyl)pyrrolidin-1-yl)pyrimidine-5-carboxamide]"
19,42000 nM,"CNC(=O)c1cnc(N2CCN(C(=O)OC(C)(C)C)CC2C)nc1Nc1ccc(C2CC2)nc1 (stereo not drawn) [Compound 15, Tert-Butyl 4-(4-((6-cyclopropylpyridin-3-yl)amino)-5-(methylcarbamoyl)pyrimidin-2-yl)-3-methylpiperazine-1-carboxylate]"
20,7.8 nM,"COc1c(Nc2nc(N3CCC(C(=O)O)CC3)ncc2C(N)=O)cccc1-c1ncc(F)cn1 [Compound 38, 1-(5-carbamoyl-4-((3-(5-fluoropyrimidin-2-yl)-2-methoxyphenyl)amino)pyrimidin-2-yl)piperidine-4-carboxylic Acid]"
21,7500 nM,"COc1ccccc1Nc1nc(N2CCN(C(=O)OC(C)(C)C)CC2C)ncc1C(N)=O (stereo not drawn) [Compound 43, Tert-Butyl 4-(5-carbamoyl-4-((2-methoxyphenyl)amino)pyrimidin-2-yl)-3-methylpiperazine-1-carboxylate]"
22,49 nM,"COc1c(Nc2nc(N3CCNCC3C)ncc2C(N)=O)cccc1-c1ncc(F)cn1 (stereo not drawn) [Compound 57, 4-((3-(5-fluoropyrimidin-2-yl)-2-methoxyphenyl)amino)-2-(2-methylpiperazin-1-yl)pyrimidine-5-carboxamide]"
23,370 nM,"COc1c(Nc2nc(N3CCCN(C(C)=O)CC3)ncc2C(N)=O)cccc1-c1ncc(F)cn1 [Compound 81, 2-(4-acetyl-1,4-diazepan-1-yl)-4-((3-(5-fluoropyrimidin-2-yl)-2-methoxyphenyl)amino)pyrimidine-5-carboxamide]"
24,36 nM,"CNC(=O)c1cnc(N2CCC(C(=O)O)CC2)nc1Nc1cccc(-c2ncc(F)cn2)c1OC [Compound 27, 1-(4-((3-(5-fluoropyrimidin-2-yl)-2-methoxyphenyl)amino)-5-(methylcarbamoyl)pyrimidin-2-yl)piperidine-4-carboxylic acid]"
25,180 nM,"CC(=O)N1CCN(c2ncc(C(N)=O)c(Nc3ccc(C4CC4)nc3)n2)C(C)C1 (stereo not drawn) [Compound 11, 2-(4-acetyl-2-methylpiperazin-1-yl)-4-((6-cyclopropylpyridin-3-yl)amino)pyrimidine-5-carboxamide]"

# Same assay, conditions: Table 4: pyrimidinyl compound of Formula I versus compounds with a different heteroaryl core; read-out: TYK JH2 (Kd)
row,Kd,SMILES
1,31000 nM,CNC(=O)c1nnc(N2CCC(C(=O)NC)C2)cc1Nc1ccc(C2CC2)nc1 (stereo not drawn) [reference compound]

# Same assay, conditions: footnote a: the two measurements averaged for Cmpd. No. 5; read-out: TYK JH2 (Kd, nM), individual measurements
row,Kd,SMILES
1,0.45 nM and 0.93 nM,"CNC(=O)c1cnc(N2CC[C@@H](C(=O)NC)C2)nc1Nc1cccc(-c2ncc(F)cn2)c1OC [Compound 5, (R)-4-((3-(5-fluoropyrimidin-2-yl)-2-methoxyphenyl)amino)-N-methyl-2-(3-(methylcarbamoyl)pyrrolidin-1-yl)pyrimidine-5-carboxamide]"

# — patent US20250257051A1, “SUBSTITUTED PYRIMIDINE COMPOUNDS AS TYK2 INHIBITORS” (1910 Genetics Inc., priority 2022, published 2025)
